# Measurements taken from article doi:10.1101/706028v1 (biorxiv, 2019).
# Key:
# [1] = molecular target: ΔCRD Nluc-SMO (Mus musculus, UniProt P56726, D477G/E522K); test: NanoBRET saturation binding, live cells; type: cell-based
# [2] = molecular target: Nluc-SMO (Mus musculus, UniProt P56726, D477G/E522K); test: NanoBRET saturation binding, live cells; type: cell-based
# Sequence of Nluc-SMO (P56726 33-793 D477G/E522K): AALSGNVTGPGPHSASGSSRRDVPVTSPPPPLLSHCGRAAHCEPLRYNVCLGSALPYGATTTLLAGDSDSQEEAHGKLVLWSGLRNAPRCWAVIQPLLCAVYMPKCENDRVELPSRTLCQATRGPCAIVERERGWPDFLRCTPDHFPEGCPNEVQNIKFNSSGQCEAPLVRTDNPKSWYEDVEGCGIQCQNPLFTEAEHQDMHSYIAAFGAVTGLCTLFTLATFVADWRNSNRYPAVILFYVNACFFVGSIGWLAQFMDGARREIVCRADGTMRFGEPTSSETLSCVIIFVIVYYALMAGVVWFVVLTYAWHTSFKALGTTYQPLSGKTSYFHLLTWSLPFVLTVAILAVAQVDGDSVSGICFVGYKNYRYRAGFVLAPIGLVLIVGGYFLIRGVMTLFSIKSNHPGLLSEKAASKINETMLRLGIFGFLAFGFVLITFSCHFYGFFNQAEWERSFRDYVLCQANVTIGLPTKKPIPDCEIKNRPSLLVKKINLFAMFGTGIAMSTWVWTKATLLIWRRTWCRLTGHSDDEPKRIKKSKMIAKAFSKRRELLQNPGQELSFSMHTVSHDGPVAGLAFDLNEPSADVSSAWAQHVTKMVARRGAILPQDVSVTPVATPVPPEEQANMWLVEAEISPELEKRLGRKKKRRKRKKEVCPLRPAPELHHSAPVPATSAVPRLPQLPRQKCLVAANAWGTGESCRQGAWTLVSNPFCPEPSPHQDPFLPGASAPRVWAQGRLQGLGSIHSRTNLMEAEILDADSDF
# Sequence of ΔCRD Nluc-SMO (P56726 185-793 D477G/E522K): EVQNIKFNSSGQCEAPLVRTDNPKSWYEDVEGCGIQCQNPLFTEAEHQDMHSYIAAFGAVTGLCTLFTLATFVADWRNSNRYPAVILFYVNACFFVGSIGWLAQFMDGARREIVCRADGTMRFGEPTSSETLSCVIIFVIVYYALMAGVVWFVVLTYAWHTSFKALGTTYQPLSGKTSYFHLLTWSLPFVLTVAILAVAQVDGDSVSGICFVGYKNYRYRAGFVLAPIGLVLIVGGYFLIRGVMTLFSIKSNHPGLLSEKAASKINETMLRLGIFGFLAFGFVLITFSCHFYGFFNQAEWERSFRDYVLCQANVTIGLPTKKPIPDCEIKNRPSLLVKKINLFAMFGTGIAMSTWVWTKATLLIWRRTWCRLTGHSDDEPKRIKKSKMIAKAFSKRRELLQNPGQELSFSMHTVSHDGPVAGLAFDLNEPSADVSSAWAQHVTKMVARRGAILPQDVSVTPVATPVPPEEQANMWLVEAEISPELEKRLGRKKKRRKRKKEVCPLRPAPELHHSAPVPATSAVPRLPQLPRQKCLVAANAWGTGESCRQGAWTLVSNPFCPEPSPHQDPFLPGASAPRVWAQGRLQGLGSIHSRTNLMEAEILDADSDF
smiles,measurement,setting,value
CC1=CC(C)=[N+]2C1=Cc1ccc(CCC(=O)NCCCCCC(=O)NCCN3C[C@@H](C)C[C@H]4O[C@]5(CC[C@@H]6C(=C5C)C[C@H]5[C@H]6CC=C6C[C@@H](O)CC[C@@]65C)[C@H](C)[C@@H]43)n1[B-]2(F)F [BODIPY-cyclopamine],Kd,[1],0.45 ± 0.0387 µM
same,Kd,[2],0.666 ± 0.122 µM
